# Reference: patent US8901305B2, “Aryl lactam kinase inhibitors” (Bristol-Myers Squibb Company, priority 2012, dated 2014)
# Biological target: T1, GST-Xa-hAAK1 (Homo sapiens, UniProt Q2M2I8)
# T1 construct: made in house
# Assay: AAK1 kinase assay
# Format: biochemical
# Details: ATP 22 μM, 3 hours at room temperature
# Method: The assays were performed in U-bottom 384-well plates. […] The reactions were initiated by the combination of bacterially expressed, GST-Xa-hAAK1 with substrates and test compounds. The reactions were incubated at room temperature for 3 hours and terminated by adding 60 μl of 35 mM EDTA buffer to each sample. The reactions were analyzed on the Caliper LabChip 3000 (Caliper, Hopkinton, Mass.) by electrophoretic separation of the fluorescent substrate and phosphorylated product. […] Compounds were dissolved at 10 mM in dimethylsulfoxide (DMSO) and evaluated at eleven concentrations. IC50 values were derived by non-linear regression analysis.
# T1 sequence (Q2M2I8 whole entry): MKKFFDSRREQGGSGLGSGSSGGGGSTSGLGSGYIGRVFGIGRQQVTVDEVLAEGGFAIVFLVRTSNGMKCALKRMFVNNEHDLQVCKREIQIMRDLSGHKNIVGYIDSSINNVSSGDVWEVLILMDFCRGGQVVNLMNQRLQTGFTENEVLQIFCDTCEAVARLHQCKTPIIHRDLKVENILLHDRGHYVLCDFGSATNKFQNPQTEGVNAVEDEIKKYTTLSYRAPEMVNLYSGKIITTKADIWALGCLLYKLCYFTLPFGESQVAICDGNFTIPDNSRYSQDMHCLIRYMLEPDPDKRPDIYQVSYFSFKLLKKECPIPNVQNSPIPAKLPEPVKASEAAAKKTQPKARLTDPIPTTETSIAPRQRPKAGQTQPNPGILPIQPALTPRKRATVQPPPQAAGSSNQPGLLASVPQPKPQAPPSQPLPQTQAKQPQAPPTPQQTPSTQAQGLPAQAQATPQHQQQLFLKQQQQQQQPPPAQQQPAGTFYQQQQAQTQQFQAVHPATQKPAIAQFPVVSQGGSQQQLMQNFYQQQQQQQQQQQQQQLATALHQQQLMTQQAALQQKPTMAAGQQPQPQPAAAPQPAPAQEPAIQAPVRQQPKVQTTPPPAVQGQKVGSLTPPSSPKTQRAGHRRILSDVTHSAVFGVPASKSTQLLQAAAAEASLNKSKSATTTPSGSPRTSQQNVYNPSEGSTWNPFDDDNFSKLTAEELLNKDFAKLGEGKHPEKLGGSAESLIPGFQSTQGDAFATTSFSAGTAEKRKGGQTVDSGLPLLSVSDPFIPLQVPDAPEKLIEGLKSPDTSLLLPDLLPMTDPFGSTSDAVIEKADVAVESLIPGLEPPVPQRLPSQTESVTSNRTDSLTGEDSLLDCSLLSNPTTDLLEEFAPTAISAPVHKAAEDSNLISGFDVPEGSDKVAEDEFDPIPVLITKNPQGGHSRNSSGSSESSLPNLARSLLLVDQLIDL
IC50 (given as IC50 range),Compound,IC50
,"CC(C)OC[C@H](N)COc1ccc2c3ccncc3c(=O)n(C)c2c1 [Example 53, (S)-8-(2-amino-3-isopropoxypropoxy)-6-methylbenzo[c][2,7]naphthyridin-5(6H)-one]",119 nM
,"CC(C)C[C@H](N)COc1ccc2c3ccncc3c(=O)n(CCO)c2c1 [Example 44, (S)-8-(2-amino-4-methylpentyloxy)-6-(2-hydroxyethyl)benzo[c][2,7]naphthyridin-5(6H)-one]",41 nM
,"Cc1cc2c(cn1)c(=O)n(C)c1cc(OC[C@@H](N)CC(C)C)ccc21 [Example 67, (S)-8-((2-amino-4-methylpentyl)oxy)-2,6 dimethylbenzo[c][2,7]naphthyridin-5(6H)-one]",893 nM
,"COc1cc2c3ccnc(C)c3c(=O)n(C)c2cc1OCC(C)(N)CC(C)C (stereo not shown) [Example 34, 8-((2-amino-2,4-dimethylpentyl)oxy)-9-methoxy-4,6-dimethylbenzo[c][2,7]naphthyridin-5(6H)-one]",5.9 nM
,"Cc1nccc2c1c(=O)n(C)c1c(Cl)c(OC[C@@H](N)CC(C)C)ccc21 [Example 61, (S)-8-((2-amino-4-methylpentyl)oxy)-7-chloro-4,6-dimethylbenzo[c][2,7]naphthyridin-5(6H)-one]",126 nM
,"Cc1nccc2c1c(=O)n(C)c1cc(OC[C@@H](N)CC(C)C)c(C(C)O)cc21 (single isomer, unassigned) [Example 30]",1.7 nM
10 to 100 nM,"CN[C@H](COc1ccc2c3ccncc3c(=O)n(C)c2c1)CC(C)C [Example 54, (S)-6-methyl-8-((4-methyl-2-(methylamino)pentyl)oxy)benzo[c][2,7]naphthyridin-5(6H)-one]",
1 to 10 nM,"Cc1nccc2c1c(=O)[nH]c1c(F)c(OC[C@@H](N)CC(C)C)c(Br)cc12 [Example 100, (S)-8-(2-amino-4-methylpentyloxy)-9-bromo-7-fluoro-4-methylbenzo[c][2,7]naphthyridin-5(6H)-one]",
,"CCc1cc2c3ccnc(C)c3c(=O)n(C)c2cc1OC[C@@H](N)CC(C)C [Example 36, (S)-8-((2-amino-4-methylpentyl)oxy)-9-ethyl-4,6-dimethylbenzo[c][2,7]naphthyridin-5(6H)-one]",0.35 nM
,"Cc1nccc2c1c(=O)n(C)c1cc(OC[C@@](C)(N)CC(C)C)ccc21 (single isomer, unassigned) [Example 38]",13 nM
1 to 10 nM,"Cc1nccc2c1c(=O)[nH]c1cc(OCC(C)(N)CC(C)C)c(F)cc12 (stereo not shown) [Example 102, 8-(2-amino-2,4-dimethylpentyloxy)-9-fluoro-4-methylbenzo[c][2,7]naphthyridin-5(6H)-one]",
1 to 10 nM,"COc1cc2c3ccnc(C)c3c(=O)n(C)c2cc1OC[C@@H](N)CC(C)C [Example 89, (S)-8-((2-amino-4-methylpentyl)oxy)-9-methoxy-4,6-dimethylbenzo[c][2,7]naphthyridin-5(6H)-one]",
10 to 100 nM,"Cn1c(=O)c2cnccc2c2ccc(OC[C@@H](N)CC(C)(F)F)cc21 [Example 55, (S)-8-((2-amino-4,4-difluoropentyl)oxy)-6-methylbenzo[c][2,7]naphthyridin-5(6H)-one]",
10 to 100 nM,"Cc1cc2c(cn1)c(=O)n(C)c1cc(OC[C@@H](N)CC(C)C)c(Cl)cc21 [Example 68, (S)-8-((2-amino-4-methylpentyl)oxy)-9-chloro-2,6-dimethylbenzo[c][2,7]naphthyridin-5(6H)-one]",
100 to 2000 nM,"Cc1nccc2c1c(=O)n(C)c1c(F)c(OCC(C)(N)CC(C)C)ccc21 (stereo not shown) [Example 29, 8-((2-amino-2,4-dimethylpentyl)oxy)-7-fluoro-4,6-dimethylbenzo[c][2,7]naphthyridin-5(6H)-one]",
10 to 100 nM,"Cc1nccc2c1c(=O)n(C)c1cc(OC[C@@H](N)CC(C)C)c(C(C)O)cc21 (single isomer, unassigned) [Example 31]",
10 to 100 nM,"Cc1nccc2c1c(=O)n(C)c1cc(OC[C@@H](N)CC(C)C)c(OC(F)F)cc21 [Example 90, (S)-8-((2-amino-4-methylpentyl)oxy)-9-(difluoromethoxy)-4,6-dimethylbenzo[c][2,7]naphthyridin-5(6H)-one]",
,"COCCn1c(=O)c2cnccc2c2ccc(OC[C@@H](N)CC(C)C)cc21 [Example 12, (S)-8-((2-amino-4-methylpentyl)oxy)-6-(2-methoxyethyl)benzo[c][2,7]naphthyridin-5(6H)-one]",85 nM
100 to 2000 nM,"CC(C)C[C@H](N)COc1ccc2c3ccnc(C(F)F)c3c(=O)n(C)c2c1 [Example 60, (S)-8-(2-amino-4-methylpentyloxy)-4-(difluoromethyl)-6-methylbenzo[c][2,7]naphthyridin-5(6H)-one]",
10 to 100 nM,"Cc1nccc2c1c(=O)[nH]c1c(F)c(OCC(C)(N)CC(C)C)ccc12 (stereo not shown) [Example 105, 8-(2-amino-2,4-dimethylpentyloxy)-7-fluoro-4-methylbenzo[c][2,7]naphthyridin-5(6H)-one]",
,"CC(C)C[C@H](N)COc1ccc2c3ccncc3c(=O)n(Cc3ccccc3)c2c1 [Example 11, (S)-8-((2-amino-4-methylpentyl)oxy)-6-benzylbenzo[c][2,7]naphthyridin-5(6H)-one]",73 nM
10 to 100 nM,"CC(C)C[C@H](N)COc1ccc2c3ccncc3c(=O)n(CC3CC3)c2c1 [Example 13, (S)-8-((2-amino-4-methylpentyl)oxy)-6-(cyclopropylmethyl)benzo[c][2,7]naphthyridin-5(6H)-one]",
1 to 10 nM,"Cc1nccc2c1c(=O)n(C)c1cc(OC[C@@H](N)CC(C)C(F)(F)F)ccc21 (single isomer, unassigned) [Example 87]",
10 to 100 nM,"CN[C@H](COc1ccc2c3ccnc(C)c3c(=O)n(C)c2c1)CC(C)C [Example 95, (S)-4,6-dimethyl-8-(4-methyl-2-(methylamino)pentyloxy)benzo[c][2,7]naphthyridin-5(6H)-one]",
,"CC(C)CC(C)(N)COc1ccc2c3ccncc3c(=O)n(C)c2c1 (stereo not shown) [Example 28, 8-((2-amino-2,4-dimethylpentyl)oxy)-6-methylbenzo[c][2,7]naphthyridin-5(6H)-one]",1.1 nM
,"Cn1c(=O)c2cnccc2c2ccc(OCC3CCCCN3)cc21 (stereo not shown) [Example 57, 6-methyl-8-(piperidin-2-ylmethoxy)benzo[c][2,7]naphthyridin-5(6H)-one]",229 nM
1 to 10 nM,Cc1nccc2c1c(=O)n(C)c1cc(OC[C@@H](N)CC(C)C)c(-n3cccn3)cc21 [Example 74],
,"Cc1nccc2c1c(=O)[nH]c1c(F)c(OC[C@@H](N)CC(C)C)ccc12 [Example 82, (S)-8-(2-amino-4-methylpentyloxy)-7-fluoro-4-methylbenzo[c][2,7]naphthyridin-5(6H)-one]",150 nM
10 to 100 nM,"CC(C)C[C@H](N)COc1ccc2c3ccncc3c(=O)n(C(C)C)c2c1 [Example 8, (S)-8-((2-amino-4-methylpentyl)oxy)-6-isopropylbenzo[c][2,7]naphthyridin-5(6H)-one]",
,"Cc1nccc2c1c(=O)n(C)c1cc(OC[C@@H](N)CC3CC3)ccc21 [Example 21, (S)-8-(2-amino-3-cyclopropylpropoxy)-4,6-dimethylbenzo[c][2,7]naphthyridin-5(6H)-one]",23 nM

Compound,IC50 (given as IC50 range),IC50
"Cn1c(=O)c2cnccc2c2ccc(OCC(N)CC(F)(F)F)cc21 (stereo not shown) [Example 93, 8-(2-amino-4,4,4-trifluorobutoxy)-6-methylbenzo[c][2,7]naphthyridin-5(6H)-one]",10 to 100 nM,
